Measurements published in the NIST ThermoML archive (doi:10.1021/je034218n).

Settings: Liquid, vibrating tube

COCCOCCO [2-(2-methoxyethoxy)ethanol]
mass density [kg/m3]
Settings	100 kPa	1000 kPa	2500 kPa	5000 kPa	7500 kPa	10000 kPa	15000 kPa	20000 kPa	25000 kPa
283.15 K	1028.5	1029	1029.8	1031.2	1032.5	1033.9	1036.4	1039	1041.4
293.15 K	1019.5	1020	1020.9	1022.3	1023.7	1025.2	1027.9	1030.5	1033.1
303.15 K	1010.8	1011.3	1012.2	1013.6	1015	1016.4	1019.3	1022.1	1024.8
313.15 K	1002	1002.6	1003.5	1005.1	1006.7	1008.2	1011.2	1014.1	1016.9
323.15 K	993.2	993.9	994.9	996.6	998.3	1000	1003.2	1006.2	1009.2
333.15 K	983.9	984.6	985.6	987.4	989.1	990.8	994.1	997.2	1000.2
343.15 K	975.2	975.8	977	978.8	980.6	982.4	985.9	989.2	992.4
353.15 K	965.7	966.4	967.6	969.5	971.4	973.3	976.9	980.4	983.7

CCOCCOCCO [3,6-dioxa-1-octanol]
mass density [kg/m3]
Settings	100 kPa	1000 kPa	2500 kPa	5000 kPa	7500 kPa	10000 kPa	15000 kPa	20000 kPa	25000 kPa
283.15 K	997.7	998.2	999.1	1000.6	1002	1003.4	1006.1	1008.8	1011.3
293.15 K	988.4	988.9	989.8	991.3	992.8	994.3	997.2	999.9	1002.6
303.15 K	979.5	980.1	981.1	982.6	984.2	985.8	988.8	991.7	994.6
313.15 K	970.6	971.2	972.2	973.9	975.5	977.1	980.3	983.4	986.3
323.15 K	961.5	962.1	963.2	965	966.8	968.5	971.9	975.1	978.2
333.15 K	952.4	953.1	954.3	956.1	958	959.7	963.2	966.5	969.8
343.15 K	943.4	944.1	945.3	947.3	949.2	951.1	954.8	958.3	961.6
353.15 K	934.1	934.9	936.1	938.2	940.2	942.2	946	949.7	953.2
